ChEMBL document CHEMBL5046281, “N-Aryl Mercaptopropionamides as Broad-Spectrum Inhibitors of Metallo-β-Lactamases” (J Med Chem, 2022)
Active and inactive are the calls of the source. The rule behind the calls is not given here.

Assays:
[1] = Lipophilicity, log D of the compound at pH 7.4 by HPLC-MS analysis; assay type: physicochemical; details: buffer
[2] = system: HepG2; experiment: Cytotoxicity against human HepG2 cells assessed as reduction in cell viability at 100 uM relative to control; assay type: toxicity, cell-based; details: hepg2, 100 µM
[3] = system: Klebsiella pneumoniae; experiment: Potentiation of imipenem-induced antibacterial activity against NDM-1 producing Klebsiella pneumoniae T2301 clinical isolates assessed as imipenem MIC at 128 mg/l by microdilution method; assay type: functional
[4] = system: Klebsiella pneumoniae; experiment: Antibacterial activity against imipenem-resistant NDM-1-producing Klebsiella pneumoniae T2301 at 128 mg/L measured after 24 hrs by time-kill assay; assay type: functional, organism-based

`O=C(CCS)Nc1cccc(C(=O)O)c1` showed a logD [1] of -0.96, an Activity [2] of less than 10% and an MIC [3] of 0.5 µg/mL. The Activity [4] was “inactive”.
